How the values were obtained:
protein kinase A (PKA) = protein kinase A (PKA) (Homo sapiens, UniProt P17612); test: SERS detection of small molecule binding to protein after size exclusion spin column; settings: 2.5 μM H-89, 0.2 mg/mL protein, PKA reaction buffer, 30 minutes at room temperature; flow through, difference of SERS spectra at 70° C. and room temperature
Method: In FIG. 2 small molecules and proteins are mixed in a purification column such as a size exclusion spin column and are allowed to incubate for a period of time. The incubation times depends on the binding affinity between the small molecule and the protein. Typically an incubation time of 10-30 minutes at room temperature is sufficient. The solvent used in the purification column is preferably chosen to optimize binding between the small molecules and the proteins. For example, PKA reaction buffer (50 mM Tris-HCl, 10 mM MgCl2) is preferably used for optimal binding between PKA and H-89.
For example, molecules with molecular weights below a certain cut-off value are retained in the size-exclusion type purification columns while protein molecules are collected in the flow through. Any small molecules that bind to the protein can also be carried through the column with the protein and recovered in the flow through. Raman spectroscopy using SERS active particles can be used to detect the small molecules in the flow through.
In FIG. 2-2 the small molecules are first released from the proteins in the flow through by, for example, heating the flow through. Raman spectroscopy is then again used to detect the presence of the small molecules in the flow through.
H-89 is a known small molecule inhibitor to protein kinase A (PKA). […]

[1] = target: bovine serum albumin (BSA) (Bos taurus, UniProt P02769); test: SERS detection of small molecule binding to protein after size exclusion spin column (negative control protein); settings: 2.5 μM H-89, 0.2 mg/mL protein, same procedure
Method: (§1) PIERCE ZEBA-ZEBA desalt spin columns (cat #89882) were washed 10 times with methanol and 10 times with purified water. H-89 was then mixed with PKA or control proteins in a PKA reaction buffer (50 mM Tris-HCl, 10 mM MgCl2), making a final H-89 concentration of 2.5 μM and protein concentration of 0.2 mg/mL. This mixture was incubated at room temperature for 30 minutes, added to a desalting size exclusion spin column, and spun at 1500 g for 2 minutes to remove free H-89.
(§2) The silver colloids are aggregated by 0.5M of Lithium Chloride prior to addition of the sample. Ten spectra are collected from the mixture of sample and aggregated silver colloids. The remaining flow through is heated at 70° C. for 10 minutes, and another SERS measurement is performed. The line labeled PKA is the arithmetic difference in the SERS spectrums at 70° C. and room temperature (intensity on the primary y-axis). The main characteristic peaks of H-89 are visible and marked by black arrows.
(§3) The same procedure described above is repeated with other proteins including bovine serum albumin (labeled BSA), immunoglobulin G (labeled IgG), and Histone (labeled as Histone) as negative controls. The SERS spectrum corresponding to H-89 is not seen in any of these controls.

immunoglobulin G (IgG) = test: as above; settings: 2.5 μM H-89, 0.2 mg/mL protein, same procedure
Method: as §1, §2, §3

Histone = test: as above; settings: 2.5 μM H-89, 0.2 mg/mL protein, same procedure
Method: as §1, §2, §3

bovine serum albumin (BSA), sequence (P02769 25-607): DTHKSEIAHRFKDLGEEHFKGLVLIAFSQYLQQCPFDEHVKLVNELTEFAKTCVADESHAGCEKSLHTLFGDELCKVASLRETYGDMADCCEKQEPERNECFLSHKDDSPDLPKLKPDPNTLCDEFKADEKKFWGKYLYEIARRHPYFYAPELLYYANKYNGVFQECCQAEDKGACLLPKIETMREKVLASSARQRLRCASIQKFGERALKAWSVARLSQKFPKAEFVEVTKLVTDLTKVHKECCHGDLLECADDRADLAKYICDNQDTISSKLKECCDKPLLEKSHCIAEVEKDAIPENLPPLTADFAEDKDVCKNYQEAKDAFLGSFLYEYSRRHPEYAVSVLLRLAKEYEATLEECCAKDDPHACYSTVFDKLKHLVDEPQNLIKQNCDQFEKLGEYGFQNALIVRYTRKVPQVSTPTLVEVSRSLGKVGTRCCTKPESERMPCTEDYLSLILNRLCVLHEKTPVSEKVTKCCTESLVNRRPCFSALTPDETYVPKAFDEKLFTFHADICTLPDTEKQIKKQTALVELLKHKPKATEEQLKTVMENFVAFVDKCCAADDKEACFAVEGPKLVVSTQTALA

binding to PKA (characteristic H-89 peaks in SERS difference spectrum) (protein kinase A (PKA)): there was binding of H-89 to PKA
SMILES: O=S(=O)(NCCNC/C=C/c1ccc(Br)cc1)c1cccc2cnccc12 [H-89]
specific binding to BSA (SERS spectrum corresponding to H-89) [1]: specific binding of H-89 to the control proteins did not occur
specific binding to IgG (SERS spectrum corresponding to H-89) (immunoglobulin G (IgG)): specific binding of H-89 to the control proteins did not occur
specific binding to Histone (SERS spectrum corresponding to H-89) (Histone): specific binding of H-89 to the control proteins did not occur

Reference: patent publication US20070141714A1, “Method to detect small molecules binding to proteins using surface enhanced Raman scattering (SERS)” (Intel Corporation, priority 2005, published 2007)
